From ChEMBL document CHEMBL1201862, “PubChem BioAssay data set” (2004)
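How tested: cells in 96-well plates exposed to compound for 48 hours at five concentrations. The concentration for 50% growth inhibition is given as GI50.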 Calls of active or inactive are those of the source. Rule as the data show it: active = GI50 up to about 1.1 µM and inactive = higher.

Assays:
Experiment in all cases: NCI-60 cell line screen, 48 h
HCT-15 = system: HCT-15
SK-MEL-2 = system: SK-MEL-2
OVCAR-4 = system: OVCAR-4
M14 = system: M14
NCI-H522 = system: NCI-H522
SK-MEL-5 = system: SK-MEL-5
COLO 205 = system: COLO 205
HOP-62 = system: HOP-62
NCI-H226 = system: NCI-H226
CAKI-1 = system: CAKI-1
SF-268 = system: SF-268
SR = system: SR
A498 = system: A498
SF-539 = system: SF-539
IGROV-1 = system: IGROV-1
A549 = system: A549
T47D = system: T47D
MDA-MB-435 = system: MDA-MB-435
MDA-MB-231 = system: MDA-MB-231
NCI/ADR-RES = system: NCI/ADR-RES

## O=C(O/N=C1/CCC/C1=C\c1ccccc1)c1ccccc1
HCT-15
  GI50: 59.6 µM
SK-MEL-2
  GI50: > 100 µM (inactive)
OVCAR-4
  GI50: > 100 µM (inactive)
M14
  GI50: > 100 µM (inactive)
NCI-H522
  GI50: 53 µM (inactive)
SK-MEL-5
  GI50: 44.6 µM (inactive)
COLO 205
  GI50: > 100 µM (inactive)
HOP-62
  GI50: > 100 µM (inactive)
NCI-H226
  GI50: > 100 µM (inactive)
CAKI-1
  GI50: > 100 µM (inactive)
SF-268
  GI50: 38.7 µM (inactive)
SR
  GI50: 44.4 µM (inactive)
A498
  GI50: > 100 µM (inactive)
SF-539
  GI50: > 100 µM (inactive)
IGROV-1
  GI50: > 100 µM (inactive)
A549
  GI50: > 100 µM (inactive)

## CC1(C)OC[C@@H](O)[C@H](Br)CO1
HCT-15
  GI50: > 100 µM
SK-MEL-2
  GI50: > 100 µM (inactive)
OVCAR-4
  GI50: > 100 µM (inactive)
M14
  GI50: > 100 µM (inactive)
T47D
  GI50: > 100 µM (inactive)
MDA-MB-435
  GI50: > 100 µM (inactive)
COLO 205
  GI50: > 100 µM (inactive)
HOP-62
  GI50: > 100 µM (inactive)
NCI-H226
  GI50: > 100 µM (inactive)
CAKI-1
  GI50: > 100 µM (inactive)
SF-268
  GI50: 53.8 µM (inactive)
MDA-MB-231
  GI50: > 100 µM (inactive)
SR
  GI50: > 100 µM (inactive)
A498
  GI50: > 100 µM (inactive)
SF-539
  GI50: > 100 µM (inactive)

## C=C(Br)N(CC)CC
HCT-15
  GI50: > 100 µM
SK-MEL-2
  GI50: > 100 µM (inactive)
OVCAR-4
  GI50: > 100 µM (inactive)
M14
  GI50: > 100 µM (inactive)
NCI-H522
  GI50: > 100 µM (inactive)
SK-MEL-5
  GI50: > 100 µM (inactive)
COLO 205
  GI50: > 100 µM (inactive)
HOP-62
  GI50: > 100 µM (inactive)
NCI-H226
  GI50: > 100 µM (inactive)
CAKI-1
  GI50: > 100 µM (inactive)
SF-268
  GI50: > 100 µM (inactive)
SR
  GI50: > 100 µM (inactive)
A498
  GI50: > 100 µM (inactive)
SF-539
  GI50: > 100 µM (inactive)
IGROV-1
  GI50: > 100 µM (inactive)
A549
  GI50: > 100 µM (inactive)

## CCCC(=O)Oc1ccc2c(C)cc(=O)oc2c1OC(=O)CCC
HCT-15
  GI50: 31.8 µM
SK-MEL-2
  GI50: > 100 µM (inactive)
OVCAR-4
  GI50: > 100 µM (inactive)
M14
  GI50: 48.6 µM (inactive)
NCI/ADR-RES
  GI50: 33.2 µM (inactive)
SK-MEL-5
  GI50: 56 µM (inactive)
MDA-MB-435
  GI50: 59.6 µM (inactive)
COLO 205
  GI50: 86.1 µM (inactive)
HOP-62
  GI50: 71.3 µM (inactive)
NCI-H226
  GI50: 34.8 µM (inactive)
SF-268
  GI50: 46.2 µM (inactive)
MDA-MB-231
  GI50: 42.6 µM (inactive)
SR
  GI50: 48.4 µM (inactive)
A498
  GI50: 30.7 µM (inactive)
SF-539
  GI50: > 100 µM (inactive)
IGROV-1
  GI50: 45.7 µM (inactive)
A549
  GI50: 31.6 µM (inactive)

## CC(C)CC(NC(=O)C(CCI)Cc1ccccc1)C(=O)Nc1ccccc1 (stereo not given)
HCT-15
  GI50: 49.9 µM
SK-MEL-2
  GI50: > 100 µM (inactive)
OVCAR-4
  GI50: > 100 µM (inactive)
M14
  GI50: 35.6 µM (inactive)
NCI/ADR-RES
  GI50: 19 µM (inactive)
NCI-H522
  GI50: 27.7 µM (inactive)
SK-MEL-5
  GI50: 55.3 µM (inactive)
MDA-MB-435
  GI50: 58.5 µM (inactive)
COLO 205
  GI50: 95.9 µM (inactive)
NCI-H226
  GI50: 58.6 µM (inactive)
CAKI-1
  GI50: > 100 µM (inactive)
MDA-MB-231
  GI50: > 100 µM (inactive)
SR
  GI50: 22.8 µM (inactive)
A498
  GI50: > 100 µM (inactive)
SF-539
  GI50: > 100 µM (inactive)
IGROV-1
  GI50: 51.1 µM (inactive)
A549
  GI50: 80.9 µM (inactive)

## CCCCCCCCCCCCCCCCCc1nc(C#N)c(N)o1
HCT-15
  GI50: 86.9 µM
SK-MEL-2
  GI50: > 100 µM (inactive)
M14
  GI50: 98.6 µM (inactive)
SK-MEL-5
  GI50: > 100 µM (inactive)
MDA-MB-435
  GI50: > 100 µM (inactive)
HOP-62
  GI50: > 100 µM (inactive)
CAKI-1
  GI50: 19.9 µM (inactive)
SF-268
  GI50: 33.2 µM (inactive)
MDA-MB-231
  GI50: 21 µM (inactive)
SR
  GI50: 7.89 µM (inactive)
A498
  GI50: > 100 µM (inactive)
IGROV-1
  GI50: 12.1 µM (inactive)
A549
  GI50: > 100 µM (inactive)

## O=C(O)C(Br)C(Br)C(=O)O (stereo not given)
HCT-15
  GI50: > 100 µM
SK-MEL-2
  GI50: > 100 µM (inactive)
OVCAR-4
  GI50: > 100 µM (inactive)
M14
  GI50: > 100 µM (inactive)
NCI/ADR-RES
  GI50: > 100 µM (inactive)
NCI-H522
  GI50: > 100 µM (inactive)
SK-MEL-5
  GI50: > 100 µM (inactive)
MDA-MB-435
  GI50: > 100 µM (inactive)
COLO 205
  GI50: > 100 µM (inactive)
HOP-62
  GI50: > 100 µM (inactive)
NCI-H226
  GI50: > 100 µM (inactive)
CAKI-1
  GI50: > 100 µM (inactive)
SF-268
  GI50: > 100 µM (inactive)
MDA-MB-231
  GI50: > 100 µM (inactive)
SR
  GI50: 28.2 µM (inactive)
A498
  GI50: > 100 µM (inactive)
SF-539
  GI50: > 100 µM (inactive)
IGROV-1
  GI50: > 100 µM (inactive)
A549
  GI50: > 100 µM (inactive)

## CCc1nnc(CC)n1NCCCC(=O)O
HCT-15
  GI50: > 100 µM
SK-MEL-2
  GI50: > 100 µM (inactive)
OVCAR-4
  GI50: > 100 µM (inactive)
M14
  GI50: > 100 µM (inactive)
NCI/ADR-RES
  GI50: > 100 µM (inactive)
NCI-H522
  GI50: > 100 µM (inactive)
SK-MEL-5
  GI50: > 100 µM (inactive)
MDA-MB-435
  GI50: > 100 µM (inactive)
COLO 205
  GI50: > 100 µM (inactive)
HOP-62
  GI50: > 100 µM (inactive)
SF-268
  GI50: > 100 µM (inactive)
MDA-MB-231
  GI50: > 100 µM (inactive)
SR
  GI50: > 100 µM (inactive)
SF-539
  GI50: > 100 µM (inactive)
IGROV-1
  GI50: > 100 µM (inactive)
A549
  GI50: > 100 µM (inactive)

## CC(=O)N1C/C(=C\c2ccccc2)C(=O)/C(=C/c2ccccc2)C1
HCT-15
  GI50: 8.38 µM
SK-MEL-2
  GI50: 24.9 µM (inactive)
OVCAR-4
  GI50: 17.6 µM (inactive)
M14
  GI50: 6.98 µM (inactive)
NCI-H522
  GI50: 12.3 µM (inactive)
SK-MEL-5
  GI50: 6.19 µM (inactive)
COLO 205
  GI50: 17.6 µM (inactive)
HOP-62
  GI50: 11.4 µM (inactive)
NCI-H226
  GI50: 17.4 µM (inactive)
CAKI-1
  GI50: 17.6 µM (inactive)
SF-268
  GI50: 23.2 µM (inactive)
SR
  GI50: 2.99 µM (inactive)
A498
  GI50: 16.8 µM (inactive)
SF-539
  GI50: 19.3 µM (inactive)
IGROV-1
  GI50: 17.6 µM (inactive)
A549
  GI50: 23.1 µM (inactive)

## NC(=O)c1cn(C2OC(CO)C(O)C2O)c(=O)[nH]c1=O (stereo not given)
HCT-15
  GI50: > 100 µM
SK-MEL-2
  GI50: > 100 µM (inactive)
OVCAR-4
  GI50: > 100 µM (inactive)
M14
  GI50: > 100 µM (inactive)
NCI-H522
  GI50: > 100 µM (inactive)
SK-MEL-5
  GI50: > 100 µM (inactive)
COLO 205
  GI50: > 100 µM (inactive)
HOP-62
  GI50: > 100 µM (inactive)
NCI-H226
  GI50: > 100 µM (inactive)
CAKI-1
  GI50: > 100 µM (inactive)
SF-268
  GI50: > 100 µM (inactive)
SR
  GI50: > 100 µM (inactive)
A498
  GI50: > 100 µM (inactive)
SF-539
  GI50: > 100 µM (inactive)
IGROV-1
  GI50: > 100 µM (inactive)
A549
  GI50: > 100 µM (inactive)

## O=C1O/C(=C(/Cl)c2cccc3ccccc23)c2ccccc21
HCT-15
  GI50: > 100 µM
OVCAR-4
  GI50: > 100 µM (inactive)
M14
  GI50: > 100 µM (inactive)
NCI-H522
  GI50: 52.1 µM (inactive)
SK-MEL-5
  GI50: > 100 µM (inactive)
MDA-MB-435
  GI50: > 100 µM (inactive)
COLO 205
  GI50: > 100 µM (inactive)
HOP-62
  GI50: 46.3 µM (inactive)
CAKI-1
  GI50: > 100 µM (inactive)
SF-268
  GI50: 81.1 µM (inactive)
SR
  GI50: > 100 µM (inactive)
A498
  GI50: > 100 µM (inactive)
SF-539
  GI50: > 100 µM (inactive)
IGROV-1
  GI50: > 100 µM (inactive)
A549
  GI50: > 100 µM (inactive)

## CN(NC(=O)/C(=C\c1ccco1)NC(=O)c1ccccc1)c1cn[nH]c(=O)c1Cl
HCT-15
  GI50: 57.3 µM
SK-MEL-2
  GI50: 80.5 µM (inactive)
OVCAR-4
  GI50: > 100 µM (inactive)
M14
  GI50: 66.2 µM (inactive)
NCI/ADR-RES
  GI50: 50.2 µM (inactive)
NCI-H522
  GI50: 28.1 µM (inactive)
SK-MEL-5
  GI50: 29.7 µM (inactive)
MDA-MB-435
  GI50: > 100 µM (inactive)
COLO 205
  GI50: > 100 µM (inactive)
HOP-62
  GI50: 64.3 µM (inactive)
NCI-H226
  GI50: 45.6 µM (inactive)
CAKI-1
  GI50: > 100 µM (inactive)
SF-268
  GI50: > 100 µM (inactive)
MDA-MB-231
  GI50: > 100 µM (inactive)
SR
  GI50: 29.9 µM (inactive)
SF-539
  GI50: 24.9 µM (inactive)
IGROV-1
  GI50: 49.3 µM (inactive)
A549
  GI50: > 100 µM (inactive)

## CC/C=C\C/C=C\C/C=C\CCCCCCCC(=O)OCC(O)CO (stereo not given)
HCT-15
  GI50: > 63.4 µM
SK-MEL-2
  GI50: 97.9 µM (inactive)
OVCAR-4
  GI50: > 84.3 µM (inactive)
M14
  GI50: > 61.7 µM (inactive)
NCI-H522
  GI50: 22 µM (inactive)
SK-MEL-5
  GI50: > 59.2 µM (inactive)
COLO 205
  GI50: 70.5 µM (inactive)
HOP-62
  GI50: > 100 µM (inactive)
NCI-H226
  GI50: > 100 µM (inactive)
CAKI-1
  GI50: 38 µM (inactive)
SF-268
  GI50: > 90.8 µM (inactive)
SR
  GI50: 1 µM (active)
A498
  GI50: > 100 µM (inactive)
SF-539
  GI50: > 100 µM (inactive)
IGROV-1
  GI50: > 92.3 µM (inactive)
A549
  GI50: > 84.9 µM (inactive)
